From patent US11673891B2, “Imidazopyrimidine compounds and uses thereof” (Dana-Farber Cancer Institute, Inc., priority 2017, dated 2023)
“Also recorded” adds a separate entry of the source.

Assays:
[1] = tested on: Splenocytes isolated from 6-8 weeks old C57BL/6 mice; experiment: Mouse splenocyte in vitro stimulation, murine IL-6 by ELISA; format: cell-based; conditions: C57BL/6 splenocytes, 33 μM, 18 hours
Protocol: Splenocytes isolated from 6-8 weeks old C57BL/6 mice and human adult PBMCs were stimulated for 18 hours with compound 037 and its analogs at 33 μM. Production of murine IL-6 and human TNF was assessed in cell-free supernatants by ELISA. Results are presented as scatter plot in which each dot represents median production of human TNF (N=3-5) or murine IL-6 (N=6) for each compound.
Spleens were harvested from 6-8 weeks old C57BL/6 mice. For splenocyte isolation, spleens were mashed through a […] strainer, washed with PBS, and erythrocytes were lysed with 2 min of incubation in ammonium chloride-based lysis buffer (BD Biosciences). Cells were then counted and plated 2×10^6 per well (round bottom 96-well plate) in 200 μl of complete culture medium (RPMI 1640 plus 10% heat-inactivated fetal bovine serum [FBS, GE Healthcare HyClone], 50 μM 2-mercaptoethanol, 2 mM 1-glutamine, 100 U/ml penicillin/streptomycin [Gibco ThermoFisher Scientific]) with 0.66 μl of DMSO-dissolved compounds (10 mM) in order to achieve a final compound concentration of 33 μM. After 18 hours of incubation (37° C., 5% CO2), plates were spun down (500×g, room temperature, 5 minutes) and supernatants were harvested for further analysis.

human adult PBMCs = experiment: TNF production by ELISA after stimulation of human adult PBMCs; format: cell-based; conditions: 33 μM, 18 hours; for TNF (Median) / Activity class / TNF % (Median): adult PBMCs; for TNF (Median) / TNF % (Median): N=3-5; for TNF (Median): unit not given (FIG. 6B/7B legends: TNF concentration in ng/ml); for Activity class: class according to TNF % as compared to R848; for TNF % (Median): median percentage TNF production as compared to R848
Protocol: Table 1. Activity of Exemplary Imidazopyrimidine Compounds on Stimulating TNF Production in PBMCs as Compared to Compound R848 Table 1 provides the activity of exemplary compounds on stimulating TNF production in PBMCs as compared to the benchmark compound R848. Specifically, TNF production was measured by ELISA after stimulation of adult PBMCs with compound 037 analog family or the compound R848 at 33 μM for 18 hours. Analogs are ranked top to bottom by median percentage TNF production (TNF %) as compared to R848 (N=3-5). The compounds have been classified in the following categories according to TNF %: high activity—class A: TNF %>15%; medium activity—class B: 1%<TNF %≤15%; low activity—class C: TNF %≤1%.
ELISAs and Multiplex-Analyte Assays. Supernatants derived from human PBMCs and DC stimulations were assayed by ELISA for TNF (ThermoFisher Scientific; Waltham, Mass., USA). Cytokine and chemokine expression profiles (e.g., IFNγ, IL-9, IL-10, IL-12 (p70), IL-13, IL-1β, IL-23, IL-27, IL-28A, IL-33, IL-6, MIP-3α/CCL20, and TNF) in cell culture supernatants were measured using a customized Milliplex® Human Th17 Magnetic Bead Panel according to the manufacturer's instructions (Millipore, Chicago, Ill., USA). Assays were read and analyzed on the Luminex® 100/200™ System and xPOTENT® software (Luminex, Austin, Tex.). A minimum threshold was set at the minimum detectable concentration for each individual assay, defined as three standard deviations above the mean background.
PBMCs were isolated from blood using a Ficoll density gradient. PBMCs either used fresh or were stored at 5×10^7 cells per vial in 1 mL RPMI containing 20% autologous plasma and 10% DMSO at −80° C. until use. Stimulation plates were prepared by transferring 0.66 μl of DMSO-dissolved compounds (10 mM) to each well of a round bottom 96-well plate. PBMCs isolated from human adult donors were resuspended at a concentration of 10^5 cells/200 μl of RPMI supplemented with 10% of platelet-poor plasma. 200 μl of the cell suspension were transferred to each well resulting in a final compound concentration of […]. After about 18 hours of incubation (37° C., 5% CO2), plates were spun down (500×g, room temperature, 5 minutes) and supernatants were harvested for further analysis.

Row | Compound | Production of murine IL-6 by splenocytes (in words) [1] | TNF (Median) (human adult PBMCs; ELISA) | Activity class (human adult PBMCs) | Production of human TNF by PBMCs (in words) (human adult PBMCs; human adult PBMCs, ELISA) | TNF % (Median) (human adult PBMCs) [%]
1 | Cc1cnc2nc(-c3ccc(C)c(NC(=O)c4ccccc4C(F)(F)F)c3)cn2c1 [FRF-02-144-3] | activates both human PBMCs and mouse splenocytes; also recorded: active on both human and murine cells | 5.397 | A (high activity—class A: TNF %>15%) | activates both human PBMCs and mouse splenocytes; also recorded: active on both human and murine cells | 99.81
2 | Cc1ccc(-c2cn3cc(F)cnc3n2)cc1NC(=O)C(C)c1ccccc1 (centres unmarked) [FRF-03-081] | – | 0.3195 | B (medium activity—class B: 1%<TNF %≤15%) | – | 7.51
3 | Cc1ccc(-c2cn3cc(F)cnc3n2)cc1NC(=O)C(C)(C)c1ccccc1 [FRF-03-084-1] | – | 0.24 | B (medium activity—class B: 1%<TNF %≤15%) | – | 6.00
